The numbers were not newly measured in PMC7728372, “Synthesis and Biological Evaluation of Amino Chalcone Derivatives as Antiproliferative Agents” (Molecules, 2020), which cites them from elsewhere.

SMILES strings stand for the structures.

In this data set the test system is SKVO3 cells. Also on record: method as in PMID 27213819. To be noted: cited from earlier work.

The term IC50 denotes the point on the concentration scale where inhibition reaches its midpoint. Take `COc1ccc(N(C)c2cc(=O)oc3ccccc23)cc1NC(=O)CCCCl` [Compound 9]: the IC50 was 3.5 nM.
